Test results from article PMC9975586, “Inhibitory effect of Selaginella doederleinii hieron on human cytochrome P450” (Frontiers in Pharmacology, 2023).
pIC50: −log10 of the molar value. Where two headings read alike, the source gives them in different places.

Legend:
CYP3A = CYP3A (Homo sapiens, UniProt P08684); test: CYP450 cocktail inhibition assay (LC-MS/MS, human liver microsomes); format: in vitro ADME; details: for IC50 at 15 min / inhibition at 15 min, 10 µM: human, liver microsomes
CYP1A2 = biological target: T1, CYP1A2 (Homo sapiens, UniProt P05177); test: as above; format: in vitro ADME; details: for pIC50: HLM 0.5 mg/mL, substrate Phenacetin 10 μM, 15 min
T1 sequence (P05177 1-516): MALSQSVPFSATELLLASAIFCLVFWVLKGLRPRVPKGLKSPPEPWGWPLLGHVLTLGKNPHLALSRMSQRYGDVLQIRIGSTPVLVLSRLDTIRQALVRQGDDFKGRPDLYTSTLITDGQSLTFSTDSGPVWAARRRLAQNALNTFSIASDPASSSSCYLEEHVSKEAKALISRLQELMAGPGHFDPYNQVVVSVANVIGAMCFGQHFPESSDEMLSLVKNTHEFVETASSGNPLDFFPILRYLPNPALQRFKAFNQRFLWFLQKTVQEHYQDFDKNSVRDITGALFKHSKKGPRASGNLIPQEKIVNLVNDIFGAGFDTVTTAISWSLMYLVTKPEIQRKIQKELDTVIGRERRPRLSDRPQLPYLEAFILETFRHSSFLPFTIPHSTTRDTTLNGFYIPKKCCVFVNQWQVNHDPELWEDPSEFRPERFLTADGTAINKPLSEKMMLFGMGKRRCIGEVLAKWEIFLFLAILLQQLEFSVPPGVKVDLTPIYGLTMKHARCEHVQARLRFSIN
Description: (§1) The contents of organic solvent and DMSO in incubation mixture was under 1% (v/v) and 0.1% (v/v) respectively. Reactions were terminated by adding 200 µL of an ice-cold stop solution consisting of methanol containing Rutin (2 µg/ml) as internal standard. Samples were subsequently cooled in ice bath to precipitate proteins. Supernatants were collected into clean tubes after centrifugation at 12000 rpm at 4°C for 10 min prior to inject into LC-MS/MS.
(§2) Percentages of control activity were calculated to determine inhibition potency. The inhibition curves were obtained by incubating the cocktail of substrates with 10–11 different compounds’ concentrations, where Delicaflavone and Amentoflavone were 0–50 µM.
(§3) For specific MRM parameters, please refer to Supplementary Table S3.

CYP2E1 = CYP2E1 (Homo sapiens, UniProt P05181); test: as above; details: for inhibition at 15 min, 10 µM: human, pH 7.4
Chain of CYP2E1 (P05181 whole entry): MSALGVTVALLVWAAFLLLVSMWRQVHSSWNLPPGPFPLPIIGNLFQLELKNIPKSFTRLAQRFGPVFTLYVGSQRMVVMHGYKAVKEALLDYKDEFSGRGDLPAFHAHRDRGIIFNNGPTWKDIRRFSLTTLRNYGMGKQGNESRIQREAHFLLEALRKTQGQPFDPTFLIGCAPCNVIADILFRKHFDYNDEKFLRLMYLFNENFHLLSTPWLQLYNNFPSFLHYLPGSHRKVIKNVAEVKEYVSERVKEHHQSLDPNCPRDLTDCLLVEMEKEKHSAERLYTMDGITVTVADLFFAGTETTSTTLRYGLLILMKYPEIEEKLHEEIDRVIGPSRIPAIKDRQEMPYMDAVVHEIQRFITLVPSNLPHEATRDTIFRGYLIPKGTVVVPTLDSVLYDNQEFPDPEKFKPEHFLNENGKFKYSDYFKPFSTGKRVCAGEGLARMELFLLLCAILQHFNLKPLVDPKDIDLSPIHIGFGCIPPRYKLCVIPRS
Description: as §1, §2, §3

CYP2C9 = CYP2C9 (Homo sapiens, UniProt P11712); test: as above; details: for inhibition at 15 min, 10 µM: human, microsomes, pH 7.4
Chain of CYP2C9 (P11712 whole entry): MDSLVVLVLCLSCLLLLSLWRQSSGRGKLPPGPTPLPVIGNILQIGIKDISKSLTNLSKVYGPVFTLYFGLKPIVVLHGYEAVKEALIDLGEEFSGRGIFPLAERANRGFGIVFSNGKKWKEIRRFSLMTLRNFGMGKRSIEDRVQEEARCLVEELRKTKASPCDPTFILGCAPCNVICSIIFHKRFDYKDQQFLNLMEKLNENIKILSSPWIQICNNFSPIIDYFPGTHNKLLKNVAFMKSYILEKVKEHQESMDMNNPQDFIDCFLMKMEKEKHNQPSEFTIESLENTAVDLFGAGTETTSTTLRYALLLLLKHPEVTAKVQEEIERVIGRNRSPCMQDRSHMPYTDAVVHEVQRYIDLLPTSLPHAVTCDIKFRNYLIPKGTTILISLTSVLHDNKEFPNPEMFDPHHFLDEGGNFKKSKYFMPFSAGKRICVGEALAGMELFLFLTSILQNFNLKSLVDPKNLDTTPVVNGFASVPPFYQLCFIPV
Description: as §1, §2, §3

CYP2C8 = biological target: T2, CYP2C8 (Homo sapiens, UniProt P10632); test: as above; details: for inhibition at 15 min, 10 µM: human, microsomes, pH 7.4
T2 sequence (P10632 1-490): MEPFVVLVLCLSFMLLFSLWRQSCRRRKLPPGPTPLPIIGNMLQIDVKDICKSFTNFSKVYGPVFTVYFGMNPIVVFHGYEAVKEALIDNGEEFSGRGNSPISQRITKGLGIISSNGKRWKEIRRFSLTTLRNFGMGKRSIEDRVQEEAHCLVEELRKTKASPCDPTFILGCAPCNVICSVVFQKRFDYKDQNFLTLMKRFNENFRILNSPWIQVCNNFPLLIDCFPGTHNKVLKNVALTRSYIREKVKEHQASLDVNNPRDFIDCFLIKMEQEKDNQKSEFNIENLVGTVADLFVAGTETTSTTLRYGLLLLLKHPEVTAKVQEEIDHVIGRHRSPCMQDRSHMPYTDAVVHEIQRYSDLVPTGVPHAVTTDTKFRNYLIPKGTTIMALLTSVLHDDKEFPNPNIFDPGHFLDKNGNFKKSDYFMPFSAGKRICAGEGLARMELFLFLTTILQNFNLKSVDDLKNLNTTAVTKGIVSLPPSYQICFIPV
Description: as §1, §2, §3

CYP2C19 [1] = biological target: T3, CYP2C19 (Homo sapiens, UniProt P33261); test: as above
T3 sequence (P33261 whole entry): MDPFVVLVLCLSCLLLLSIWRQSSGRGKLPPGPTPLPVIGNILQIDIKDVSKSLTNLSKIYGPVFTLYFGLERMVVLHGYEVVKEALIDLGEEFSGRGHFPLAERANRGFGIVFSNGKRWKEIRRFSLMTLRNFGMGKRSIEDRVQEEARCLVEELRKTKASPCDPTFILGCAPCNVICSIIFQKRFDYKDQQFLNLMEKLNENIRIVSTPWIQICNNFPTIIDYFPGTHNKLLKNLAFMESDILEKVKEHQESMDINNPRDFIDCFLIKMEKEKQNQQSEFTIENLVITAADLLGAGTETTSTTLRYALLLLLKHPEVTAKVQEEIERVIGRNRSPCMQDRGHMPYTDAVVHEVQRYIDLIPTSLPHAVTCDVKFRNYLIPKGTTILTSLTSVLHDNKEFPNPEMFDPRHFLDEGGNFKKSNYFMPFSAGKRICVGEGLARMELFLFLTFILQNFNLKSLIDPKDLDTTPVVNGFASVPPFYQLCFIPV
Description: as §1, §2, §3

CYP2D6 [2] = biological target: T4, CYP2D6 (Homo sapiens, UniProt P10635); test: as above
T4 sequence (P10635 whole entry): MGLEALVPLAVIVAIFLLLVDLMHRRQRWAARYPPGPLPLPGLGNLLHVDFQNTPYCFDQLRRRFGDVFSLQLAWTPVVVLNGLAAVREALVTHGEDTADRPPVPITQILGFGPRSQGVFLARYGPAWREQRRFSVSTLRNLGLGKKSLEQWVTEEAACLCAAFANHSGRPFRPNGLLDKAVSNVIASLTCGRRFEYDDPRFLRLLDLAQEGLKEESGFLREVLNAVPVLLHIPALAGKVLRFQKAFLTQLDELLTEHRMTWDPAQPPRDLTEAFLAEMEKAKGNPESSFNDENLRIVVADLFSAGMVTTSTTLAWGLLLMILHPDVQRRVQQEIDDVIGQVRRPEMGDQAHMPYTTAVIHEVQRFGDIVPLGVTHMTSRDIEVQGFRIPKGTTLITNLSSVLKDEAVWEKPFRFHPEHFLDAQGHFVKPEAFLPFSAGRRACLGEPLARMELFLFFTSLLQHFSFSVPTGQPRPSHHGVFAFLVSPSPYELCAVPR
Description: as §1, §2, §3

CYP2C19 [3] = biological target: T3, CYP2C19; test: Time-dependent inhibition study (pre-incubation with HLM with/without NADPH, cocktail assay); format: in vitro ADME; details: single point screening; SDEA 0.5 μg/ml, Amentoflavone 0.1 μM, Delicaflavone 2 μM; 35 min pre-incubation with/without NADPH
Description: (§4) Enzymes that may be involved in time-dependent were pre-incubated for 0, 5, 10, 15 and 35 min respectively, and then re-incubated to determine the type of inhibition. Residual enzyme activity pre-incubated without NADPH was set as the control group, then drawing suppression curves based on the measured data.

CYP2D6 [4] = biological target: T4, CYP2D6; test: as above; format: in vitro ADME; details: single point screening; SDEA 0.5 μg/ml, Amentoflavone 0.1 μM, Delicaflavone 2 μM; 35 min pre-incubation with/without NADPH
Description: as §4

CYP3A (Testosterone) = test: as above; format: in vitro ADME, human; details: single point screening; SDEA 0.5 μg/ml, Delicaflavone 2 μM; 35 min pre-incubation with/without NADPH
Description: as §4

[5] = pH 7.4, probe Dextromethorphan (3-methoxymorphinan formation, in cocktail)
[6] = pH 7.4, probe Testosterone 5 µM (in cocktail)
[7] = pH 7.4, probe Testosterone (in cocktail), single-point, 10 μM, cocktail assay, HLM, substrate Testosterone, read-out: inhibitory effect on CYP3A (Testosterone)
[8] = single-point, 10 μM, cocktail assay, HLM

Chain of CYP3A (P08684 2-503): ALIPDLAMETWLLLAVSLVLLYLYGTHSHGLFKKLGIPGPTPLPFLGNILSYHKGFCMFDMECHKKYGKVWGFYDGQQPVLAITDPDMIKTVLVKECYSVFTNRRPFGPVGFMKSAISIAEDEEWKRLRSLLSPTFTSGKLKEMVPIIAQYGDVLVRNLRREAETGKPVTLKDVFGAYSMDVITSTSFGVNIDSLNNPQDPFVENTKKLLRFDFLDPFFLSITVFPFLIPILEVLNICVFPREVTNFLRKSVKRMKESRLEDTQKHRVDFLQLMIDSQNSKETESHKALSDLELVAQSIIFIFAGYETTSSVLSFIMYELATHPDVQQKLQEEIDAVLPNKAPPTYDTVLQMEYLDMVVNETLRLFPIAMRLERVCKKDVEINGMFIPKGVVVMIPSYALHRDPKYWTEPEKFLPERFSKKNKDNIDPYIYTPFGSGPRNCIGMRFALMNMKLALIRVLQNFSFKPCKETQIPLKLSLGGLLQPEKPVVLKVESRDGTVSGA

SMILES | IC50 at 15 min (CYP3A; [5]) | IC50 at 15 min (CYP3A; [6]) | pIC50 (CYP1A2) | pIC50 (CYP2E1) | inhibition at 15 min, 10 µM (CYP2E1; microsomes) | pIC50 (CYP2C9) | inhibition at 15 min, 10 µM (CYP2C9) | pIC50 (CYP2C8) | inhibition at 15 min, 10 µM (CYP2C8) | pIC50 (CYP2C19 [1]) | inhibition at 15 min, 10 µM (CYP3A; [7]) | further results
O=c1cc(-c2ccc(O)c(-c3c(O)cc(O)c4c(=O)cc(-c5ccc(O)cc5)oc34)c2)oc2cc(O)cc(O)c12 [Amentoflavone] | 0.827 µM | 0.435 µM | 5.43 | 5.98 | > 50% | 6.85 | > 50% | 6.84 | > 50% | 5.97 | – | inhibition at 15 min, 10 µM (CYP3A; pH 7.4, single-point, 10 μM, cocktail assay, HLM, substrate not specified, read-out: inhibitory effect on CYP3A): > 50%; inhibition at 15 min, 10 µM (CYP1A2; human, liver microsomes, pH 7.4, probe Phenacetin (in cocktail), single-point, 10 μM, HLM, read-out: inhibitory effect on CYP1A2): > 50%; inhibition at 15 min, 10 µM (CYP2C19 [1]; human, microsomes, pH 7.4): > 50%; pIC50 (CYP2D6 [2]): 5.34; inhibition at 15 min, 10 µM (CYP2D6 [2]; human, microsomes, pH 7.4): > 50%
O=c1cc(-c2ccc(O)cc2)oc2cc(O)cc(O)c12 [Apigenin] | – | – | – | – | > 50% | – | > 50% | – | > 50% | – | > 50% | –
O=c1cc(-c2ccc(Oc3c(-c4ccc(O)cc4)oc4cc(O)cc(O)c4c3=O)cc2)oc2cc(O)cc(O)c12 [Delicaflavone] | 33.3 µM | 7.25 µM | 3.98 | 5.54 | – | 4.40 | – | 4.87 | – | 4.14 | – | inhibitory effect on CYP3A (CYP3A; single-point, 10 μM, cocktail assay, HLM, substrate not specified): weak inhibitory effect; time-dependent inhibition on CYP2C19 (CYP2C19 [3]): did not produce time-dependent inhibition effect; time-dependent inhibition on CYP2D6 (CYP2D6 [4]): did not produce time-dependent inhibition effect; time-dependent inhibition on CYP3A (Testosterone) (CYP3A (Testosterone)): did not produce time-dependent inhibition effect; inhibitory effect on CYP1A2 (CYP1A2; single-point, 10 μM, HLM): no obvious inhibitory effect; inhibitory effect on CYP2E1 (CYP2E1; [8]): weak inhibitory effect; inhibitory effect on CYP2C9 (CYP2C9; [8]): no obvious inhibitory effect; inhibitory effect on CYP2C8 (CYP2C8; [8]): no obvious inhibitory effect; inhibitory effect on CYP2C19 (CYP2C19 [1]; [8]): no obvious inhibitory effect; inhibitory effect on CYP2D6 (CYP2D6 [2]; [8]): no obvious inhibitory effect
COc1cc2c(cc1OC)-c1cc3ccc(OC)c(OC)c3c[n+]1CC2 [Palmatine] | – | – | – | – | – | – | – | – | – | – | > 50% | inhibitory effect on CYP2E1 (CYP2E1; microsomes, 10 µM): weak inhibitory effect
